Active and inactive are the calls of the source. The calls are words filed in the database; no cut-off is given here.
Tests used:
Plasmodium berghei [1] = assay: Down regulation of berghepain-2 in Plasmodium berghei NK-65 infected in ICR mouse at 50 mg/kg, po administered 4 days post-infection measured after 18 hrs in the host blood by 2D-gel electrophoresis; assay type: functional, organism-based; parameters: dose 50 mg/kg
Plasmodium berghei [2] = assay: Down regulation of heat shock protein (gi68071723) in Plasmodium berghei NK-65 infected in ICR mouse at 50 mg/kg, po administered 4 days post-infection measured after 18 hrs in the host blood by 2D-gel electrophoresis; assay type: functional, organism-based; parameters: dose 50 mg/kg
Plasmodium berghei [3] = assay: Antimalarial activity against Plasmodium berghei NK-65 infected in ICR mouse assessed as parasitemia at 50 mg/kg, po administered 4 days post-infection measured after 18 hrs (reference value: 30 to 40%); assay type: functional
Mus musculus [4] = assay: Down regulation of beta-actin in ICR mouse infected with Plasmodium berghei NK-65 at 50 mg/kg, po administered 4 days post-infection measured after 18 hrs in host blood by 2D-gel electrophoresis; assay type: functional, organism-based; parameters: dose 50 mg/kg
Plasmodium berghei [5] = assay: Down regulation of hypothetical protein (gi68064486) in Plasmodium berghei NK-65 infected in ICR mouse at 50 mg/kg, po administered 4 days post-infection measured after 18 hrs in the host blood by 2D-gel electrophoresis; assay type: functional, organism-based; parameters: dose 50 mg/kg
Mus musculus [6] = assay: Up regulation of unnamed protein product (gi74220592) in ICR mouse infected with Plasmodium berghei NK-65 at 50 mg/kg, po administered 4 days post-infection measured after 18 hrs in host blood by 2D-gel electrophoresis; assay type: functional, organism-based; parameters: dose 50 mg/kg
Plasmodium berghei [7] = assay: Down regulation of hypothetical protein (gi68067763) in Plasmodium berghei NK-65 infected in ICR mouse at 50 mg/kg, po administered 4 days post-infection measured after 18 hrs in the host blood by 2D-gel electrophoresis; assay type: functional, organism-based; parameters: dose 50 mg/kg
Mus musculus [8] = assay: Up regulation of unnamed protein product (gi74005074) in ICR mouse infected with Plasmodium berghei NK-65 at 50 mg/kg, po administered 4 days post-infection measured after 18 hrs in host blood by 2D-gel electrophoresis; assay type: functional, organism-based; parameters: dose 50 mg/kg
Plasmodium berghei [9] = assay: Down regulation of […] precursor in Plasmodium berghei NK-65 infected in ICR mouse at 50 mg/kg, po administered 4 days post-infection measured after 18 hrs in the host blood by 2D-gel electrophoresis; assay type: functional, organism-based; parameters: dose 50 mg/kg

In the case of `CCN(CC)c1ccc2nc3c4ccccc4/c(=N/c4ccncc4)cc-3oc2c1.Cl`, the Activity (Plasmodium berghei [1]) is reported as “Active”, the Activity (Plasmodium berghei [2]) is reported as “Active” and the Activity (Plasmodium berghei [3]) is reported as 20%. The Activity (Mus musculus [4]) was “Active”, the Activity (Plasmodium berghei [5]) was “Active” and the Activity (Mus musculus [6]) was “Active”. The Activity (Plasmodium berghei [7]) was “Active”, the Activity (Mus musculus [8]) was “Active” and the Activity (Plasmodium berghei [9]) was “Active”.

Reference: ChEMBL document CHEMBL1949560, “Plasmodium berghei proteome changes in response to SSJ-183 treatment” (2011)
